The nature of experiment [1]: In vivo testing in rats: growth, feed conversion and carcass composition. Also on record: species or system rat (male Charles River CD). As to conditions: in diet, dose equivalent to 20 ppm clenbuterol (clenbuterol: 10). The source says:
Eighty intact, male Charles River CD rats, 75-90 g, were housed and maintained on rat chow and water ad libitum. After four days acclimation ten rats per group were randomized by weight to treatment and pen. Compounds to be tested were premixed and added to ground rat chow using doses equivalent to 20 ppm of clenbuterol on a molecular weight basis. It had previously been determined 10 ppm of clenbuterol was the minimum dose needed to give maximum improvements in gain and feed conversion. Therefore, the results of any compound tested should cause responses similar to clenbuterol if the compound has half or more the activity of clenbuterol.

Experiment [2] concerns Isolated Ovine Adipocytes. Briefly: Stimulation of lipolysis (glycerol production) in isolated ovine adipocytes. The settings on record: Ovis aries, Adipocyte, 2 h. It is filed as cell-based, sheep. As to the method: (§1) Fat was collected from freshly killed animals as follows: epididymal and perirenal fat from 150 to 200 g male rates; perirenal fat from 20 to 25 kg whether lambs, and perirenal and omental fat from 35 to 50 kg gilts. Immediately after collection, fat was placed in a siliconized beaker (all glassware was siliconized) containing Krebs-Ringer bicarbonate solution (KRB; pH 7.4) at 37° C. Fat was transferred to a clean beaker and finely chopped with scissors. Chopped fat was then used as such (whole adipose preparation) or treated with collagenase (isolated adipocytes).
(§2) Chopped fat was placed in a shaker containing 70 ml cell dispersion medium (CDM; 5 mM glucose, 0.1% collagenase, 4% bovine serum albumin (BSA), in KRB) and incubated at 37° C. for 1 hour with gentle shaking. Fat was then filtered to remove clumps and washed 4 times with washing medium (WM; 2.5 mM glucose, 1% BSA, in KRB) and 1 time with final suspension medium (FSM; 2.5 mM glucose, 2% essentially fatty acid free BSA, in KRB). Isolated adipocytes were then resuspended in the required amount of FSM (1 ml/flask, 3 flasks/treatment).
(§3) Whole adipose tissue from the rat (0.3 ml) or isolated adipocytes from sheep or swine (1 ml) were placed in plastic scintillation vials containing FSM (1.7 or 1 ml, respectively) and test compounds, and incubated at 37° C. for 2 hours. […] Isoproterenol, at the same concentrations, was used as a positive control. After incubation, media was removed and assayed for glycerol by a fluorometric modification of the method of Wieland (1974. Glycerol UV-method. pp. 1404. In: Bergmeyer (Ed.) Methods of Enzymatic Analysis. Verlag Chemie Weinham, Academic Press, New York).

In the next experiment the test system is Rat Adipose Tissue. As to the kind of experiment: Stimulation of lipolysis (glycerol production) in chopped rat adipose tissue. The settings on record: Rattus norvegicus, 2 h. It is filed as cell-based. On the procedure:
as §1
Whole adipose tissue from the rat (0.3 ml) or isolated adipocytes from sheep or swine (1 ml) were placed in plastic scintillation vials containing FSM (1.7 or 1 ml, respectively) and test compounds, and incubated at 37° C. for 2 hours. […] Isoproterenol, at the same concentrations, was used as a positive control. After incubation, media was removed and assayed for glycerol by a fluorometric modification of the method of Wieland (1974. Glycerol UV-method. pp. 1404. In: Bergmeyer (Ed.) Methods of Enzymatic Analysis. Verlag Chemie Weinham, Academic Press, New York). […]

Experiment [3] relates to Isolated Chicken Hepatocytes. Briefly: Inhibition of lipogenesis (14C acetate incorporation) in isolated chicken hepatocytes. It is filed as cell-based. As to conditions: for inhibition at 0.01 µM / inhibition at 0.05 µM / inhibition at 0.25 µM: Gallus gallus, Hepatocyte, 2 h, read-out: percent change compared to control, 14C acetate incorporation in fatty acids. As to the method: Determination of anti-lipogenic activity in hepatocytes
Hepatocytes were isolated from chicken liver using the procedure for adipocytes and incubated for 2 hours at 37° C. in the presence of ^14 C acetate and test compounds. […] Isoproterenol, at the same concentrations, was used as a positive control. After incubation, 8 ml Doles reagent (isopropanol:hexane:H2 SO4, 40:10:1) was added and incubation vials were shaken at room temperature for 30 minutes. Vial contents were poured into 50 ml screw-cap tubes. Vials were then rinsed with 6 ml hexane which was poured into the appropriate 50 ml tube. Tubes were shaken by hand, 10 ml H2 O was added, and tubes were shaken again. After phase separation, 2 ml of the upper (hexane) phase was removed to scintillation vials. Hexane was evaporated by a gentle air flow and the remaining lipids were resuspended in 10 ml Scinti Verse II. ^14 C was counted in a Packard liquid scintillation counter. Data are reported as CPM of ^14 C acetate incorporated into total lipids.

The subject of experiment [4] is Isolated Swine Adipocytes. As to the kind of experiment: Stimulation of lipolysis (glycerol production) in isolated swine adipocytes. It is filed as cell-based. The settings on record: Sus scrofa, Adipocyte, 2 h. On the procedure:
as §1, §2, §3

Experiment [5] can be described thus: Growth promoting activity / feed utilization in livestock (general statements). It is filed as in vivo.
[6] abbreviates: Test 1, read-out: percent increase compared to control, glycerol production.
Where [7] appears, read: Test 2, read-out: percent increase compared to control, glycerol production.
The mark [8] stands for this setting: read-out: percent increase compared to control, glycerol production, Test 1.
Setting [9] is: read-out: percent increase compared to control, glycerol production, Test 2.

Like-named read-outs stand apart in the source and are kept apart here.

For the compound `CC(C)(Cc1ccccc1)NCC(O)c1ccc(O)c(NS(C)(=O)=O)c1` (stereo not shown) [I, Zinterol], the Gain in experiment [1] (Test 1, control 7.3) is 7.8 g/day. The “Feed Intake” value in experiment [1] (Test 1, control 18.6) amounted to 19.2 g/day. For the same compound, in experiment [1] (Test 1, control 191.8), the Weight is on record as 199.1 g. In experiment [1] (Test 1), the “Carcass Composition % of Change over Control, Fat” value is -10.4% and the “Carcass Composition % of Change over Control, Protein” value was 7.3%. Also, in experiment [2] (setting [6]), the activation at 0.01 µM is 730% and the activation at 0.05 µM was determined as 960%. For the same compound, in the experiment on Rat Adipose Tissue (setting [6]), the activation at 0.01 µM came to 90%, the activation at 0.05 µM stood at 129% and the activation at 0.25 µM was 281%. In experiment [3] (Test 1), the inhibition at 0.01 µM came to 45.2%, the inhibition at 0.05 µM was 61.3% and the inhibition at 0.25 µM came to 66%. Besides, in experiment [3] (chicken hepatocytes), the “antilipogenic activity relative to clenbuterol” value is “greater than 125 times” and the “antilipogenic activity relative to isoproterenol” value is given as “five times”. Besides, in experiment [4] (setting [6]), the activation at 0.01 µM worked out at 87%, the activation at 0.05 µM is 100% and the activation at 0.25 µM was determined as 53%. Besides, the “activity in all species under consideration” value in experiment [5] is given as “high activity in all species under consideration”.

Take `C[C@H](CCc1ccccc1)NC[C@H](O)c1ccc(N)nc1` [α-R,1R compound]: the “activity compared with the other optical isomers of compound IV” value in experiment [5] (in vivo) is given as “significantly more active than the most active of the other isomers”.

Turning to `Cn1c(=O)c2c(ncn2CCCNCC(O)c2cc(O)cc(O)c2)n(C)c1=O` (stereo not shown) [VI, Reproterol], the Gain in experiment [1] (Test 2, control 7.5) is on record as 8.3 g/day. Also, the “Feed Intake” value in experiment [1] (Test 2, control 19.3) is listed as 21.2 g/day. In addition, the Weight in experiment [1] (Test 2, control 202.3) is recorded as 213.4 g. In experiment [1] (Test 2), the “Carcass Composition % of Change over Control, Fat” value was determined as 2.5%. In experiment [1] (Test 2), the “Carcass Composition % of Change over Control, Protein” value is reported as 0.5%. For the same compound, the activation at 0.05 µM was 130% in experiment [2] (setting [6]); 129% in experiment [2] (setting [7]); 86% with Rat Adipose Tissue (setting [6]); 16% in the experiment on Rat Adipose Tissue (setting [7]); -7% in experiment [4] (setting [6]); 21% in experiment [4] (setting [7]). The activation at 0.25 µM in experiment [2] (setting [6]) is 465%; in experiment [2] (setting [7]) it was 700%; in the experiment with Rat Adipose Tissue (setting [6]) it was 86%; in the experiment on Rat Adipose Tissue (setting [7]), 13%; in experiment [4] (setting [6]) it was 0%; in experiment [4] (setting [7]), 3%. Further, the activation at 0.01 µM was -14% in experiment [2] (setting [7]); 63% in the experiment with Rat Adipose Tissue (setting [6]); 13% with Rat Adipose Tissue (setting [7]); 20% in experiment [4] (setting [6]); 8% in experiment [4] (setting [7]). Also, the inhibition at 0.01 µM in experiment [3] (Test 1) is 0%; in experiment [3] (Test 2), -3%. For the same compound, the inhibition at 0.05 µM in experiment [3] (Test 1) was determined as 0%; in experiment [3] (Test 2) it was 12%. The inhibition at 0.25 µM in experiment [3] (Test 1) was 8.6%; in experiment [3] (Test 2) it was 25%.

`CC(C)(C)NCC(O)c1ccc(O)c(O)c1` (stereo not shown) [Compound X, Colterol]: in experiment [5] (administered orally), the “growth promoting activity, oral” value is “very little activity”. For the same compound, the “growth promoting activity, parenteral” value in experiment [5] (administered parenterally) was “substantially active”.

As for `COc1ccc(CC(C)NCC(O)c2ccc(O)c(NC=O)c2)cc1` (stereo not shown) [IX, Formoterol], in experiment [1] (Test 1, control 7.3), the Gain worked out at 7.9 g/day. Also, in experiment [1] (Test 1, control 18.6), the “Feed Intake” value amounted to 19.1 g/day. Further, in experiment [1] (Test 1, control 191.8), the Weight is reported as 199.4 g. Moreover, in experiment [1] (Test 1), the “Carcass Composition % of Change over Control, Fat” value was -10.4%. Also, in experiment [1] (Test 1), the “Carcass Composition % of Change over Control, Protein” value is 10.6%. Moreover, the activation at 0.01 µM stood at 675% in experiment [2] (setting [8]); 42% with Rat Adipose Tissue (setting [8]); 16% in the experiment on Rat Adipose Tissue (setting [9]); 207% in experiment [4] (setting [8]); 340% in experiment [4] (setting [9]). Further, the activation at 0.05 µM turned out to be 695% in experiment [2] (setting [8]); 91% in the experiment on Rat Adipose Tissue (setting [8]); 70% in the experiment with Rat Adipose Tissue (setting [9]); 267% in experiment [4] (setting [8]); 600% in experiment [4] (setting [9]). Besides, the activation at 0.25 µM with Rat Adipose Tissue (setting [8]) is 258%; in the experiment with Rat Adipose Tissue (setting [9]), 145%; in experiment [4] (setting [8]), 187%; in experiment [4] (setting [9]), 844%. Moreover, the “activity in all species under consideration” value in experiment [5] is on record as “high activity in all species under consideration”.
